Data taken from patent US20060177474A1, “Agricultural and horticultural poison bait preparation” (priority 2005, published 2006).

Compound	melting point
Cc1cc(C(F)(C(F)(F)F)C(F)(F)F)ccc1NC(=O)c1cccc(Br)c1C(=O)NC(C)CS(C)(=O)=O (stereo not shown)	153 to 155 °C
Cc1cc(C(F)(C(F)(F)F)C(F)(F)F)ccc1N(C(=O)c1c(I)cccc1C(N)=O)C(C)CS(C)(=O)=O (stereo not shown) [compound 27, 3-iodo-N′-{2-methyl-4-[1,2,2,2-tetrafluoro-1-(trifluoromethyl)ethyl]phenyl}-N^2-(1-methyl-2-methylsulfonylethyl)phthalamide]	82 °C
Cc1cc(C(F)(C(F)(F)F)C(F)(F)F)ccc1NC(=O)c1cccc(I)c1C(=O)NC(C)C[S+](C)[O-] (stereo not shown) [compound 28, 3-iodo-N^1-{2-methyl-4-[1,2,2,2-tetrafluoro-1-(trifluoromethyl)ethyl]phenyl}-N^2-(1-methyl-2-methylsulfinylethyl)phthalamide]	134 °C
Cc1cc(C(F)(C(F)(F)F)C(F)(F)F)ccc1N(C(=O)c1cccc(Cl)c1C(N)=O)C(C)CS(C)(=O)=O (stereo not shown) [compound 37, 3-chloro-N^1-{2-methyl-4-[1,2,2,2-tetrafluoro-1-(trifluoromethyl)ethyl]phenyl}-N^1-(1-methyl-2-methylsulfonylethyl)phthalamide]	155 to 156 °C
